Assay results taken from article PMC10537268 (Plants, 2023).
≈ marks a conversion by molar mass, not a printed value. Where “and” joins values, the source holds several entries; their conditions need not be identical. Equal entries are not always repeated.

Columns and labels:
COX-1 = target: T1, COX-1 (Ovis aries, UniProt P05979); assay: COX-1 fluorometric inhibitory screening assay kit; assay type: biochemical, Ovine
T1 construct: purchased Cayman Chemical Company 700100
T1 sequence (P05979 25-600): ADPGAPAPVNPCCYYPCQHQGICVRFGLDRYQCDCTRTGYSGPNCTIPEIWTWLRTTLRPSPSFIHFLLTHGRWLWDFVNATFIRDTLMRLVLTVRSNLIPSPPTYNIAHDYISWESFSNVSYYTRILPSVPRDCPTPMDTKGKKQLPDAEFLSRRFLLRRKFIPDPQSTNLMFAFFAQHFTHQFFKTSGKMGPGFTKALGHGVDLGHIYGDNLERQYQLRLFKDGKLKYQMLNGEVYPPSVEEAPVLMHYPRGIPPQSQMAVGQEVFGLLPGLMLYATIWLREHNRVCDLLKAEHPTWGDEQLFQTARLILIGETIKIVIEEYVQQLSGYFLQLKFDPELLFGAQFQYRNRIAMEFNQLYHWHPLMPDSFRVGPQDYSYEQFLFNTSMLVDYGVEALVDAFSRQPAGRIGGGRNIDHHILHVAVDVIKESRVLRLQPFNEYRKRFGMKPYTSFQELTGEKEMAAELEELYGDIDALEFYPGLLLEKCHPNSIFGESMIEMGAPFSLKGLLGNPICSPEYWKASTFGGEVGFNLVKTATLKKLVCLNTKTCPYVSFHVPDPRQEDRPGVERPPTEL
Procedure: (§1) The essential oils and geraniol were tested using a commercial COX-1 (Ovine), COX-2 (Human recombinant), and fluorometric inhibitory screening assay kit following the instructions recommended by the manufacturer (Cayman test kit 700100, Cayman Chemical Company, Ann Arbor, MI, USA). Briefly, 150 µL of assay buffer (0.1 M Tris-HCl pH 8.0), 10 µL of Heme, 10 µL of enzyme (COX-1 or COX-2), and 10 µL of the test sample were added to the wells. After 5 min at 25 °C, 10 µL of ADHP (10-acetyl-3 7-dihydroxy phenoxazine) and 10 µL of arachidonic acid were added to initiate the reaction. The plate was incubated at room temperature for 2 min followed by fluorescence measured at 530 nm (excitation) and 585 nm (emission). Stock solution of the essential oils was prepared with DMSO 1%. The triplicate experimental data are expressed as mean ± standard deviation (SD). For the percentage inhibition (%I) calculations, the formula below was used:t% I = [(Initial Activity − Sample Activity)/Initial Activity] × 100

COX-2 = target: T2, COX-2 (Homo sapiens, UniProt P35354); assay: biochemical
T2 sequence (P35354 18-604): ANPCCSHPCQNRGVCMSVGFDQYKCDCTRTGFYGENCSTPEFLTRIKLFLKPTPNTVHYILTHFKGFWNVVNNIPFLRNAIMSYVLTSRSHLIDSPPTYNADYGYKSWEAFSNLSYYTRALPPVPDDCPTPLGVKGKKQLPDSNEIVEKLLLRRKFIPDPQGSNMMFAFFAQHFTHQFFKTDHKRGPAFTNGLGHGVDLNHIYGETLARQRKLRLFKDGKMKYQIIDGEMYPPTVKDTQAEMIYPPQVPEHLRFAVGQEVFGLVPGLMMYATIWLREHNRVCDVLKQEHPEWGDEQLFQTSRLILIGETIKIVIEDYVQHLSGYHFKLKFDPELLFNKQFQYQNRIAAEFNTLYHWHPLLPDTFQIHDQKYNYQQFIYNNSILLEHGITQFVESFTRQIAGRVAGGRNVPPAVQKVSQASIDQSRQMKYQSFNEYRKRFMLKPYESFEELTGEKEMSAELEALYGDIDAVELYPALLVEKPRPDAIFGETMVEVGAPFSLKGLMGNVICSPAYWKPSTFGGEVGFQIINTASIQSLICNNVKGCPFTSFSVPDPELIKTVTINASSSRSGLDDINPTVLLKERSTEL
Procedure: as §1

ACE2 = target: T3, ACE2 (Homo sapiens, UniProt Q9BYF1); assay: ACE2 enzyme inhibition assay (BioVision kit); assay type: biochemical; conditions: read-out: ACE2 inhibition
T3 construct: purchased BioVision K310
Procedure: The ACE2 enzyme inhibition assay was performed using the commercially available kit (BioVision, UK, Catalog number: K310). Stock solutions of the test samples were prepared in DMSO (1%, v/v). Essential oils (20 μg/mL) and geraniol (5 μg/mL) were dispensed into a 96-well plate followed by addition of ACE2 enzyme solution (blank excluded). The reaction was started by adding 40 µL of substrate solution to each well. The reaction mixture was measured at Ex/Em = 320/420 nm wavelength using the SpectraMax i3, fluorescent microplate reader (Molecular Devices, CA, USA). The results are reported as % inhibition values, which were obtained for all samples from triplicate experiments.

AChE = target: T4, AChE (Electrophorus electricus, UniProt O42275); assay: Anticholinesterase activity, modified Ellman method (AChE); assay type: biochemical
T4 construct: purchased Sigma Aldrich
Procedure: Cholinesterase inhibition was determined spectrophotometrically through the modified Ellman method. Ethanol was used as negative control. Sodium phosphate buffer, AChE enzyme stock solution, the essential oils, and geraniol were mixed and allowed to incubate for 30 min at room temperature DTNB and acetylthiocholine were added to initiate the enzyme reaction.

A549 cells = assay: MTT cytotoxicity assay, A549; assay type: cell-based; conditions: Homo sapiens, A549, 24 h, read-out: IC50 A549 cytotoxicity
Procedure: (§2) Human breast cancer cell lines MCF7 (ATCC HTB-22), human prostate cancer cell lines PC3 (ATCC CRL-1435), human lung cancer cell lines A549 (ATCC CCL-185), and human embryonic kidney cell lines HEK293 (ATCC CRL-1573) were cultured in Dulbecco’s Modified Eagle’s Medium/High Glucose (DMEM, High Glucose) or Dulbecco’s Modified Eagle’s Medium/F12 (DMEM, F12) at 37 °C in a humidified 5% CO2 atmosphere. The media were supplemented with 10% fetal bovine serum (FBS), 1% (v/v) antibiotic-antimycotics solution (100 U/mL of penicillin, 100 μg/mL of streptomycin, and 0.25 μg/mL of amphotericin B), and 1% (v/v) non-essential amino acids.
(§3) Cells were cultured for 24 h in 96-well plates containing 10^5 cells per well before exposure. The essential oils and geraniol were dissolved in DMSO (<1%) and diluted with respective medium for use in MTT assay (0.1–2000 µg/mL concentration range). After incubation, the […] and washed with D-PBS followed by addition of MTT (30 µL). After a 4 h incubation period, 150 µL of DMSO was added and mixed using a shaker at 25 °C. This was followed by measurement of the absorbances a 540 nm using the microplate reader. All experiments were performed in triplicate.

PC3 cells = assay: MTT cytotoxicity assay, PC3; assay type: cell-based; conditions: Homo sapiens, PC-3, 24 h, read-out: IC50 PC3 cytotoxicity
Procedure: as §2, §3

MCF7 cells = assay: MTT cytotoxicity assay, MCF7; assay type: cell-based; conditions: Homo sapiens, MCF7, 24 h, read-out: IC50 MCF7 cytotoxicity
Procedure: as §2, §3

[1] = MTT cytotoxicity assay, HEK293; assay type: cell-based; conditions: human, HEK293 cells, healthy cell line, ND: Not detected
Procedure: as §2, §3

[2] = human recombinant COX-2, fluorometric kit

T4 sequence (O42275 24-633): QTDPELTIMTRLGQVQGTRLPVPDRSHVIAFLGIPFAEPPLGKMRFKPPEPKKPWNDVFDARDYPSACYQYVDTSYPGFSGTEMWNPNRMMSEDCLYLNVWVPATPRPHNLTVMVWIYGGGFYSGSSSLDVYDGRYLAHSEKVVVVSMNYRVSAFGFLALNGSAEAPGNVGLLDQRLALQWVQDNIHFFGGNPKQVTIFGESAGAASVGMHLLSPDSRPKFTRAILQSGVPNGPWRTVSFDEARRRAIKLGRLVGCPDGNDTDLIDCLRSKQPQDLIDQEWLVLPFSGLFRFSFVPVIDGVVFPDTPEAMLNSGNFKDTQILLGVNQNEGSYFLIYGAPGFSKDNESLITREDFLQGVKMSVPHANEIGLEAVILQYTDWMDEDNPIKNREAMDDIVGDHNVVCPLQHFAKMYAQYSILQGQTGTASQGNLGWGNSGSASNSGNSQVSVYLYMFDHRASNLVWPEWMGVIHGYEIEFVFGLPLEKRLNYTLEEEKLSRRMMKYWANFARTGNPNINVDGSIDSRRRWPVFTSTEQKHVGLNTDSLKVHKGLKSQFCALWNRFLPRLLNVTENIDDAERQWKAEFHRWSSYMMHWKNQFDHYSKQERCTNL
T3 sequence (Q9BYF1 18-805): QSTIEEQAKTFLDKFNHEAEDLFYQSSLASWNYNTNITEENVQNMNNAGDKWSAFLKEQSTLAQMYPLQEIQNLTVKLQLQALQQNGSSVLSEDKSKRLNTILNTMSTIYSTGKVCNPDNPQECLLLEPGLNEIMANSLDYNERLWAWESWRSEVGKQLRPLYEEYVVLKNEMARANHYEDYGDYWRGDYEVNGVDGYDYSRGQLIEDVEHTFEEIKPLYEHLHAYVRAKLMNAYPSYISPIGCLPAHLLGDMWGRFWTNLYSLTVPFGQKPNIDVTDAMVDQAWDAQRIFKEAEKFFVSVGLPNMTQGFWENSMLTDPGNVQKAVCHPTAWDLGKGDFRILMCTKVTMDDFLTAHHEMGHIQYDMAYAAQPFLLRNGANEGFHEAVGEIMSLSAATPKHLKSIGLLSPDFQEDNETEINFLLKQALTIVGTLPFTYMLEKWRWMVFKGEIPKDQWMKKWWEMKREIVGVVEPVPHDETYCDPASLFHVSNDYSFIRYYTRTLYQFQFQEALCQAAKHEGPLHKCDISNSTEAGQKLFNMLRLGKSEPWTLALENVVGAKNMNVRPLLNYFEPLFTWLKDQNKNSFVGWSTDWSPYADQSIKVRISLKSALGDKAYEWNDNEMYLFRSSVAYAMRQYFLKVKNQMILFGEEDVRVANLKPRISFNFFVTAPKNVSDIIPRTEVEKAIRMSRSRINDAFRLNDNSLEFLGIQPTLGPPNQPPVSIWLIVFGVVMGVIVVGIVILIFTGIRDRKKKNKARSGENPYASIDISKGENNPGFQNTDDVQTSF

SMILES | IC50 (COX-1; IC50 COX-1, ovine COX-1, fluorometric kit) | SI (selectivity index) (COX-2; COX-2 versus COX-1 IC50) | IC50 (COX-2; [2]) | inhibition at 5 µg/mL (ACE2) | IC50 (AChE) | IC50 (A549 cells) | IC50 (PC3 cells) | IC50 (MCF7 cells) | IC50 at 24 h [1] | IC50 COX-1 (COX-1; ovine COX-1, fluorometric kit) | IC50 COX-2 (COX-2; [2])
CC(C)=CCC/C(C)=C/CO [Geraniol] | 71.3 µM and 72.4 µM | 0.72 | 52.5 µM and 52.6 µM | 86.3% | 109 µM | 58.9 ± 1.09 µg/mL (≈ 382 µM) | 77 ± 2.06 µg/mL (≈ 499 µM) | 42.8 ± 1.48 µg/mL (≈ 278 µM) | 81.8 ± 1.98 µg/mL (≈ 530 µM) | – | –
CC(Cc1ccc(O)c(O)c1)C(C)Cc1ccc(O)c(O)c1 (centres unmarked) [Nordihydroguaretic Acid, Nordihydroguaiaretic acid, reference compound] | – | – | – | – | – | – | – | – | – | 7.1 µg/mL (≈ 23.5 µM) | 9.1 µg/mL
